We go through eight molecules from US12187816B2, “Macrocyclic compounds and methods of use thereof” (Genentech, Inc., priority 2020, dated 2025).

Starred links: 1 amine or outer side, 2 acyl side, 3 side chain; linkers in the order of their positions; H or OH if unused. Non-standard residues stand in square brackets, D forms with d. Residues, ends and D or L forms follow the SMILES beside them. *: point of attachment. JQ1acid = Cc1sc2c(c1C)C(c1ccc(Cl)cc1)=N[C@@H](CC(=O)*)c1nnc(C)n1-2; X1 = CC(C)(C)[C@@H](C(=O)[*:2])n1cc(COCCN[*:1])nn1; dBip = N[C@H](Cc1ccc(-c2ccccc2)cc1)C(=O)O; Hyp = O=C(O)[C@@H]1C[C@@H](O)CN1; dDap = NC[C@@H](N)C(=O)O

This experiment has as its target T1, BRD4 (Homo sapiens, UniProt O60885).
T1 construct: Mean 488 intensity of BRD4 quantitated in nuclear region; endogenous in cells; host or cells: EoL-1 eosinophilic leukemia cells
Description: BRD4 degradation assay in EOL1 cells (immunofluorescence imaging). Format: cell-based. Particulars: EoL-1 eosinophilic leukemia cells, 4 hours treatment, nuclear BRD4 immunofluorescence. The method in brief:
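EoL-1 cells treated 4 h at 37 °C with 20-point 1/3 serial dilutions (0.2% DMSO) in RPMI/10% FBS, then fixed and immunostained for BRD4. Mean nuclear BRD4 intensity measured by high-content imaging, with Hoechst nuclear masking. DMSO and no-primary-antibody controls define 0 and 100%; DC50 and maximal effect from dose-response fit.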
`Cc1sc2c(c1C)C(c1ccc(Cl)cc1)=N[C@@H](CC(=O)NC[C@H]1NC(=O)[C@@H](C)NC(=O)[C@@H](Cc3ccc(-c4ccccc4)cc3)NC(=O)[C@@H]3C[C@@H](O)CN3C(=O)[C@H](C(C)(C)C)n3cc(nn3)COCCNC1=O)c1nnc(C)n1-2` [Compound 201] showed a DC50 of under 50 nM. `Cc1sc2c(c1C)C(c1ccc(Cl)cc1)=N[C@@H](CC(=O)NC[C@H]1NC(=O)[C@@H](C(C)C)NC(=O)[C@@H](Cc3ccc(-c4ccccc4)cc3)NC(=O)[C@@H]3C[C@@H](O)CN3C(=O)[C@H](C(C)(C)C)n3cc(nn3)COCCNC1=O)c1nnc(C)n1-2` [Compound 202] (cyclo([Hyp][dBip][dV][dDap](JQ1acid)[X1])) registered a DC50 of under 50 nM. For `Cc1sc2c(c1C)C(c1ccc(Cl)cc1)=N[C@@H](CC(=O)N(C)C[C@H]1NC(=O)CNC(=O)[C@@H](Cc3ccc(-c4ccccc4)cc3)NC(=O)[C@@H]3C[C@@H](O)CN3C(=O)[C@H](C(C)(C)C)n3cc(nn3)COCCNC1=O)c1nnc(C)n1-2` [Compound 203], the DC50 was under 1000 nM.

For the molecule `Cc1sc2c(c1C)C(c1ccc(Cl)cc1)=N[C@@H](CC(=O)N(C)C[C@H]1NC(=O)CNC(=O)[C@@H](Cc3ccc(-c4ccccc4)cc3)NC(=O)[C@@H]3C[C@@H](O)CN3C(=O)[C@H](C(C)(C)C)n3cc(nn3)COCCN(C)C1=O)c1nnc(C)n1-2` [Compound 204], the DC50 was over 20000 nM. `Cc1sc2c(c1C)C(c1ccc(Cl)cc1)=N[C@@H](CC(=O)NC[C@H]1NC(=O)CNC(=O)[C@@H](Cc3ccc(-c4ccccc4)cc3)NC(=O)[C@@H]3C[C@@H](O)CN3C(=O)[C@H](C(C)(C)C)n3cc(nn3)COCCN(C)C1=O)c1nnc(C)n1-2` [Compound 205] returned a DC50 of under 50 nM. `Cc1sc2c(c1C)C(c1ccc(Cl)cc1)=N[C@@H](CC(=O)NC[C@H]1CCCNC(=O)[C@@H](Cc3ccc(-c4ccccc4)cc3)NC(=O)[C@@H]3C[C@@H](O)CN3C(=O)[C@H](C(C)(C)C)n3cc(nn3)COCCNC1=O)c1nnc(C)n1-2` [Compound 206] registered a DC50 of under 50 nM. The same measure for `Cc1sc2c(c1C)C(c1ccc(Cl)cc1)=N[C@@H](CC(=O)NC[C@H]1CCCNC(=O)[C@@H](Cc3ccc(-c4ccccc4)cc3)NC(=O)[C@@H]3C[C@@H](O)CN3C(=O)[C@H](C(C)(C)C)n3cc(nn3)C3(CC3)CNC1=O)c1nnc(C)n1-2` [Compound 207]: under 50 nM; for `Cc1sc2c(c1C)C(c1ccc(Cl)cc1)=N[C@@H](CC(=O)NC[C@H]1CCCNC(=O)[C@@H](Cc3ccc(-c4ccccc4)cc3)NC(=O)[C@@H]3C[C@@H](O)CN3C(=O)[C@H](C(C)(C)C)n3cc(nn3)C3(CC3)CNC(=O)CNC1=O)c1nnc(C)n1-2` [Compound 208]: under 1000 nM.

For orientation: DC50 means the concentration at which degradation of the target reaches its halfway point. Read a low DC50 as degradation at low concentration.
